From the supplement of paper PMC11061612

Assays:
Experiment in all cases: Bliss excess, mean over the matrix (fraction); higher = more synergy
[1] = system: CAL-78 (Chondrosarcoma)
Method in brief: (§1)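 Cell lines grown in DMEM/F12 or RPMI with 10% FBS were plated in 1536-well plates and held 24 hours at 37°C, 5% CO2 before 72 hours of exposure to two-drug dose matrices, with DMSO typically at 0.2%. CellTiter-Glo 2.0 luminescence gave viability, which was converted to inhibition. Vehicle wells were set to 0 and blank wells to 1. Combination Emax is the second-highest inhibition in the matrix, and Bliss excess is the observed combination effect minus the expected EA + EB − EA·EB, where EA and EB are the single-agent effects.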

[2] = system: COR-L23 (Non-Small Cell Lung Carcinoma)
Method in brief: as §1

[3] = system: DMS-273 (Small Cell Lung Carcinoma)
Method in brief: as §1

[4] = system: DOV13 (Ovarian Carcinoma)
Method in brief: as §1

[5] = system: DSH1 (Bladder Carcinoma)
Method in brief: as §1

[6] = system: ES7 (Ewing's Sarcoma)
Method in brief: as §1

[7] = system: HCC2157 (Breast Carcinoma)
Method in brief: as §1

[8] = system: IGR-1 (Melanoma)
Method in brief: as §1

[9] = system: JiyoyeP-2003 (Burkitt's Lymphoma)
Method in brief: as §1

[10] = system: LS-513 (Colorectal Carcinoma)
Method in brief: as §1

[11] = system: MDA-MB-157 (Breast Carcinoma)
Method in brief: as §1

[12] = system: MDA-MB-231 (Breast Carcinoma)
Method in brief: as §1

[13] = system: MFH-ino (Other Solid Carcinomas)
Method in brief: as §1

[14] = system: NCI-H1781 (Lung Adenocarcinoma)
Method in brief: as §1

[15] = system: NCI-H1793 (Lung Adenocarcinoma)
Method in brief: as §1

[16] = system: NCI-H2369 (Mesothelioma)
Method in brief: as §1

[17] = system: SK-N-FI (Neuroblastoma)
Method in brief: as §1

[18] = system: SW1088 (Low Grade Glioma)
Method in brief: as §1

[19] = system: SW780 (Bladder Carcinoma)
Method in brief: as §1

[20] = system: TE-5 (Esophageal Squamous Cell Carcinoma)
Method in brief: as §1

Structure (SMILES)	Bliss excess [1]	Bliss excess [2]	Bliss excess [3]	Bliss excess [4]	Bliss excess [5]	Bliss excess [6]	Bliss excess [7]	Bliss excess [8]	Bliss excess [9]	Bliss excess [10]	Bliss excess [11]	Bliss excess [12]	Bliss excess [13]	Bliss excess [14]	Bliss excess [15]	Bliss excess [16]	Bliss excess [17]	Bliss excess [18]	Bliss excess [19]	Bliss excess [20]
CC1(C)CCC(CN2CCN(c3ccc(C(=O)NS(=O)(=O)c4ccc(NCC5CCOCC5)c([N+](=O)[O-])c4)c(Oc4cnc5[nH]ccc5c4)c3)CC2)=C(c2ccc(Cl)cc2)C1 [Venetoclax] + Cc1cc2ncnn2cc1Nc1ncc2c(n1)n(C1CCOCC1)c(=O)n2C [AZD7648] (first compound max 1 µM, 7x7, partner max 10 µM)	0.0236	-0.0351	-0.0147	0.0659	-0.027	-0.0735	0.0602	-0.0287	-0.0604	-0.0294	-0.0154	0.0192	-0.0328	-0.0274	-0.042	-0.0273	0.0047	-0.105	-0.0035	-0.0382
CC1(C)CCC(CN2CCN(c3ccc(C(=O)NS(=O)(=O)c4ccc(NCC5CCOCC5)c([N+](=O)[O-])c4)c(Oc4cnc5[nH]ccc5c4)c3)CC2)=C(c2ccc(Cl)cc2)C1 [Venetoclax] + CCN(CCO)CCCOc1ccc2c(Nc3cc(CC(=O)Nc4cccc(F)c4)[nH]n3)ncnc2c1 [AZD2811] (first compound max 1 µM, 7x7, partner max 1 µM)	0.0143	-0.0428	0.0016	0.0465	-0.0142	0.0074	-0.0305	0.0261	0.0467	-0.0407	0.0119	-0.013	-0.0239	0.0061	-0.0039	-0.015	-0.0456	-0.0469	-0.007	-0.0318
Cc1cc2ncnn2cc1Nc1ncc2c(n1)n(C1CCOCC1)c(=O)n2C [AZD7648] + CCN(CCO)CCCOc1ccc2c(Nc3cc(CC(=O)Nc4cccc(F)c4)[nH]n3)ncnc2c1 [AZD2811] (first compound max 10 µM, 7x7, partner max 1 µM)	-0.0053	-0.023	-0.0368	-0.0551	0.0145	-0.0538	0.0278	-0.0224	0.0829	-0.0033	0.0572	0.0014	-0.0094	0.0239	-0.005	0.0252	0.0094	-0.0312	-0.018	-0.0237
COc1nnc2ccc(N3CCC(c4ccc(OCCN5CCN(C)C(=O)[C@H]5C)cc4)CC3)nn12 [AZD5153] + CCN(CCO)CCCOc1ccc2c(Nc3cc(CC(=O)Nc4cccc(F)c4)[nH]n3)ncnc2c1 [AZD2811] (first compound max 1 µM, 7x7, partner max 1 µM)	-0.0564	-0.0551	-0.0409	-0.0908	-0.0802	-0.0372	0.0389	0.0249	0.0351	-0.102	-0.0004	-0.0353	-0.0811	-0.129	-0.0381	-0.0563	-0.0579	-0.0669	-0.0766	-0.0124
Cc1c2c(nn1C)CSCc1cc(n(C)n1)CSc1cc(c3ccccc3c1)OCCCc1c(C(=O)O)n(C)c3c-2c(Cl)ccc13 [AZD5991] + C1CN(CCC1(C(=O)N[C@@H](CCO)C2=CC=C(C=C2)Cl)N)C3=NC=NC4=C3C=CN4 [Capivasertib] (first compound max 1 µM, 7x7, partner max 3 µM)	0.0091	-0.0161	-0.0524	0.0055	0.001	0.112	-0.0488	0.0228	0.0371	-0.0343	0.0573	-0.0495	-0.0372	0.0079	0.0258	-0.012	0.0211	-0.0562	-0.011	0.0141
Cc1c2c(nn1C)CSCc1cc(n(C)n1)CSc1cc(c3ccccc3c1)OCCCc1c(C(=O)O)n(C)c3c-2c(Cl)ccc13 [AZD5991] + CN(C)CCCOc1ccc(-c2ccc3ncc4c(c3c2)n(C2CCOCC2)c(=O)n4C)cn1 [AZD0156] (first compound max 1 µM, 7x7, partner max 1 µM)	-0.0212	-0.0086	0.0401	-0.0235	-0.013	0.0036	-0.012	-0.0219	-0.0359	-0.0378	-0.0169	-0.0133	-0.0286	-0.0155	0.0332	0.0002	-0.0036	-0.0356	-0.0103	-0.0081
CN(CCO)CC[C@H](CSc1ccccc1)Nc1ccc(S(=O)(=O)NC(=O)c2ccc(N3CCC([C@@H](O)c4ccccc4-c4ccc(Cl)cc4)CC3)cc2)cc1S(=O)(=O)C(F)(F)F [AZD4320] + C1CN(CCC1(C(=O)N[C@@H](CCO)C2=CC=C(C=C2)Cl)N)C3=NC=NC4=C3C=CN4 [Capivasertib] (first compound max 1 µM, 7x7, partner max 3 µM)	-0.0482	-0.0254	-0.0782	0.0131	-0.0038	0.0083	0.0191	-0.0557	0.0157	-0.0728	-0.0178	-0.0517	-0.0527	-0.0313	-0.0106	0.0332	-0.0158	0.0242	-0.053	-0.0068
